US6455593B1, “Method of dynamic retardation of cell cycle kinetics to potentiate cell damage” (priority 1995, dated 2002)

Experiments:
[1] = system: human promonocytic lymphoma cells (U937); assay: Microculture indicator system (MIS), MTT growth inhibition assay with bivariate serial dilutions; type: cell-based; conditions: for Combined results ratio / Growth inhibition (MTT): STSP 17 H, dGuo 0 H, STSP nM by row: r7 100, r8 50, r9 25, r10 12.5, r11 6.25, r12 3.13, r13-r14 0
Description: Microcultures of human promonocytic lymphoma cells (U937) (“the U937 cells”) originally obtained from the American Type Culture Collection (CRL 1593) and later grown by Dr. K. Zoon at the FDA in Bethesda, Md. were set up in a multiwell plate with serial two-fold dilutions of dThd in tissue culture growth medium (RPMI 1640 plus 10% Nurserum and antibiotics). The volume of medium per well was 100 μl and the cell number per well was about 1×10^5. The plate was incubated at 37° C. for 24 hr.
A dye, 3-[4,5-dimethylthiazol-2-yl]-2,5-diphenyl-tetrazolium bromide (MTT), was used as a chromogenic indicator of the metabolically active cell mass. Viable cells metabolize the dye and accumulate a reduced formazan product (blue color) which is solubilized for colorimetry. Mossman T, J. Immunol. Methods 5:55-63 (1983); Li L and Lau B H S, In Vitro Cell Dev. Biol. 29A:531-536 (1993). The MTT assay has been established as useful for measuring either growth inhibition or population killing. Plowman, supra. The MTT method is ideal for cells tested in suspension growth, and can also be used for some cells growing in monolayers. […] Alley, supra; Hofs, supra; Wilson J K et al., Br. J. Cancer 62:189-94 (1990); Plowman, supra.
Thirty μl of 0.5% MTT in phosphate buffered saline was added to each microculture well at the appropriate time. After incubation at 37° C. for 3 hr, 120 μl of an aqueous solution of 10 % SDS with 0.01 N HCl was added to release and dissolve formazan product. This was accomplished by overnight incubation of the plate at 37° C. After careful mixing of the microwell contents by placing the plates on an orbital shaker for 5 minutes the absorbencies were quantitated by spectrophotometry at 570 nm with a Ceres UV 900 HDI microwell plate reader (from Biotek Instruments Inc, Winooski, Vt. 05404-0998). Absorbance data was normalized to a blank well containing all reagents without cells and was collected semi-automatically.
Flat-bottom 96-well plates of tissue culture quality (Corning or Costar) were set up with two-fold serial dilutions of each agent to be tested, e.g., the RA and TCI, using a multichannel pipettor with adjustable volume, e.g., Costar or Rainin, to perform serial mixing. This set-up is diagrammed in FIG. 12. […] In each plate, a total of 59 wells then contained bivariate agent combinations, the bivariate serial dilutions.
Agents were serially diluted by serial mixing in two separate plates or series of wells, and then were combined prior to addition of a fixed volume and density of the U937 cells in a suspension calculated to deliver about 1×10^5 cells per well.
Cells were added after serial dilutions of the dThd had been dispensed. Cells were dispensed at about 10×10^4 cells per microwell to provide optimal sensitivity of detection of cell damage in subsequent calorimetric assays. […] The final volume of medium was 100 μl/well. The plates were further incubated at 37° C. for a total duration of 18-24 h. The dye MTT was used as a chromogenic indicator of the residual and metabolically active cell mass. (Described in Example 1).
In this MTT assay, normalized absorbance data was collected semi-automatically from each microculture well with a Ceres UV 900 HD1 plate reader, from Biotek Instruments Inc., Winooski, V T 05404-0998, stored in an EIA file under the Ceres 900 program, transferred in comma delimited format to a floppy diskette, and imported into a spread sheet program (Borland Quattro Pro) for data manipulations.

U937 cells = assay: Flow cytometric cell cycle analysis (propidium iodide); type: cell-based, human; conditions: bivariate flow cytometry, PI and fluorescein-labelled antibody to BrdU
Description: Flow cytometric analyses were performed with a Coulter Epics System (purchased from Coulter Corp, Hialeah, Fla.). Cells were disrupted in buffer with 0.1% Triton-X 100 (or 0.6 % NP-40), so that the nuclei could be stained with 0.05% propidium iodide (PI). See Shapiro N M, Practical Flow Cytometry, Man R Liss, NY (1988); Nicoletti I et al., J Immunol Methods 139:271-9 (1991). Analyses of 10,000 nuclei were performed with graduated concentrations of dThd at serial time points. Histograms of PI fluorescent emissions at 675±10 nm were used to discriminate cell cycle fractions of the target population. The proportion of cells in each phase of the cell cycle is represented by stack bars above the X-axis as a fraction of those cells with intact DNA structure. The fraction of cells with depleted DNA in each sample is represented below the X-axis as a percentage of the total cell number. Cells with depleted DNA are presumed apoptotic. Crompton S T et. al. Biophys. Biochem. Res. Comm. 183:532-537 (1992). Each stack bar in FIG. 5 represents the cell cycle distribution of a population sample of >10,000 cells, analyzed for each indicated dThd concentration at indicated treatment times.
Flow cytometric analyses were performed as in Example 2. The results are shown in plot A of FIG. 5 from Example 2.
The U937 cells were exposed to a range of concentrations below the IC40 and sampled for flow cytometry at intervals of 8, 16, and 24 hours. Flow cytometric analysis was performed as described in Example 2.

[2] = U937, total 17 H, dGuo 0.01 mM (ninth dilution, c19)
[3] = U937, total 17 H, dGuo 0.01 mM (tenth dilution, c21)

O=c1[nH]c(=O)n([C@H]2C[C@H](O)[C@@H](CO)O2)cc1Br [BrdU, bromodeoxyuridine]
RA concentration for STSP potentiation relative to concentration causing cell cycle arrest ([1]; U937): at least one log lower | Growth inhibition (MTT), BrdU 0.01 mM (ninth dilution) ([1]; U937, BrdU 0.01 mM (c19) for 4 H, STSP for 18 H, total 22 H, STSP nM rows r7-r12: 200,100,60,26,12.6,6.25, r14 BrdU alone): 4% | Growth inhibition (MTT), BrdU 0.01 mM (tenth, last dilution) ([1]; U937, BrdU 0.01 mM (c21, last dilution) for 4 H, STSP for 18 H, total 22 H, STSP nM rows r7-r12: 200,100,60,26,12.6,6.25, r14 BrdU alone): 4% | Combined results ratio (CRR), BrdU 0.02 mM ([1]; U937, BrdU 0.02 mM for 4 H, STSP for 18 H, total 22 H, STSP nM rows r7-r12: 200,100,60,26,12.6,6.25, r13 BrdU alone): 1.0 | Growth inhibition (MTT), BrdU 0.02 mM ([1]; U937, BrdU 0.02 mM for 4 H, STSP for 18 H, total 22 H, STSP nM rows r7-r12: 200,100,60,26,12.6,6.25, r14 BrdU alone): 5% | Combined results ratio (CRR), BrdU 0.06 mM ([1]; U937, BrdU 0.06 mM for 4 H, STSP for 18 H, total 22 H, STSP nM rows r7-r12: 200,100,60,26,12.6,6.25, r13 BrdU alone): 1.0 | Growth inhibition (MTT), BrdU 0.06 mM ([1]; U937, BrdU 0.06 mM for 4 H, STSP for 18 H, total 22 H, STSP nM rows r7-r12: 200,100,60,26,12.6,6.25, r14 BrdU alone): 10% | Combined results ratio (CRR), BrdU 0.09 mM ([1]; U937, BrdU 0.09 mM for 4 H, STSP for 18 H, total 22 H, STSP nM rows r7-r12: 200,100,60,26,12.6,6.25, r13 BrdU alone): 1.0 | Growth inhibition (MTT), BrdU 0.09 mM ([1]; U937, BrdU 0.09 mM for 4 H, STSP for 18 H, total 22 H, STSP nM rows r7-r12: 200,100,60,26,12.6,6.25, r14 BrdU alone): 21% | Combined results ratio (CRR), BrdU 3.00 mM ([1]; U937, BrdU 3.00 mM for 4 H, STSP for 18 H, total 22 H, STSP nM rows r7-r12: 200,100,60,26,12.6,6.25, r13 BrdU alone): 1.0 | Growth inhibition (MTT), BrdU 3.00 mM ([1]; U937, BrdU 3.00 mM for 4 H, STSP for 18 H, total 22 H, STSP nM rows r7-r12: 200,100,60,26,12.6,6.25, r14 BrdU alone): 61% | Combined results ratio (CRR), BrdU […] ([1]; U937, BrdU […] for 4 H, STSP for 18 H, total 22 H, STSP nM rows r7-r12: 200,100,60,26,12.6,6.25, r13 BrdU alone): 1.0 | Effect on S phase (U937 cells): produced a slowing of S phase similar to that caused by dThd

Nc1nc2c(ncn2[C@H]2C[C@H](O)[C@@H](CO)O2)c(=O)[nH]1 [dGuo]
Combined results ratio (CRR), dGuo 0.02 mM ([1]; U937, dGuo 0.02 mM for 0 H, STSP for 17 H, total 17 H, STSP nM: 100,50,25,12.5,6.25,3.13, r13 dGuo alone): 1.0 | Growth inhibition (MTT), dGuo 0.02 mM ([1]; U937, dGuo 0.02 mM for 0 H, STSP for 17 H, total 17 H, STSP nM: 100,50,25,12.5,6.25,3.13, r14 dGuo alone): 10% | Combined results ratio (CRR), dGuo 0.06 mM ([1]; U937, dGuo 0.06 mM for 0 H, STSP for 17 H, total 17 H, STSP nM: 100,50,25,12.5,6.25,3.13, r13 dGuo alone): 1.0 | Growth inhibition (MTT), dGuo 0.06 mM ([1]; U937, dGuo 0.06 mM for 0 H, STSP for 17 H, total 17 H, STSP nM: 100,50,25,12.5,6.25,3.13, r14 dGuo alone): 25% | Combined results ratio (CRR), dGuo 0.09 mM ([1]; U937, dGuo 0.09 mM for 0 H, STSP for 17 H, total 17 H, STSP nM: 100,50,25,12.5,6.25,3.13, r13 dGuo alone): 1.0 | Growth inhibition (MTT), dGuo 0.09 mM ([1]; U937, dGuo 0.09 mM for 0 H, STSP for 17 H, total 17 H, STSP nM: 100,50,25,12.5,6.25,3.13, r14 dGuo alone): 57% | Combined results ratio (CRR), dGuo 3.00 mM ([1]; U937, dGuo 3.00 mM for 0 H, STSP for 17 H, total 17 H, STSP nM: 100,50,25,12.5,6.25,3.13, r13 dGuo alone): 1.0 | Growth inhibition (MTT), dGuo 3.00 mM ([1]; U937, dGuo 3.00 mM for 0 H, STSP for 17 H, total 17 H, STSP nM: 100,50,25,12.5,6.25,3.13, r14 dGuo alone): 93% | Combined results ratio (CRR), dGuo […] ([1]; U937, dGuo […] for 0 H, STSP for 17 H, total 17 H, STSP nM: 100,50,25,12.5,6.25,3.13, r13 dGuo alone): 1.0 | Combined results ratio [1, 2]: 1.0 | Growth inhibition (MTT) [1, 2]: 2% | Combined results ratio [1, 3]: 1.0 | Growth inhibition (MTT) [1, 3]: 2% | Combined results ratio ([1]; U937, total 17 H, dGuo 0.02 mM): 1.0 | Growth inhibition (MTT) ([1]; U937, total 17 H, dGuo 0.02 mM): 10% | Combined results ratio ([1]; U937, total 17 H, dGuo 0.06 mM): 1.0 | Growth inhibition (MTT) ([1]; U937, total 17 H, dGuo 0.06 mM): 25% | Combined results ratio ([1]; U937, total 17 H, dGuo 0.09 mM): 1.0 | Growth inhibition (MTT) ([1]; U937, total 17 H, dGuo 0.09 mM): 57% | Combined results ratio ([1]; U937, total 17 H, dGuo 3.00 mM): 1.0 | Growth inhibition (MTT) ([1]; U937, total 17 H, dGuo 3.00 mM): 93%

O=c1[nH]c(=O)n([C@H]2C[C@H](O)[C@@H](CO)O2)cc1F [floxuridine]
Potentiation of DNA damage by STSP as RA ([1]; U937, concentrations less than IC40, STSP as the TCI): proved successful in potentiating DNA damage by STSP

bleomycin
Combined results ratio, bleomycin only ([1]; MTT #523, total 20 Hours, bleomycin 16 Hours, no STSP, bleomycin mU by row: r9 160, r10 80, r11 40, r12 20, r13 10, r14 5): 1.0
